Source: patent publication US11964960B2 (Cornell University, priority 2018, dated 2024)

Columns and labels:
[1] = biological target: T1, S1P2 (Homo sapiens, UniProt O95136); test: GLISA RhoA activation - antagonist assay; type: cell-based; settings: CHO-S1P2-FL cells; for inhibition at 1 µM: 1 μM compound; for IC50: 1 hour compound incubation, then for 5 min
T1 construct: Flag; expressed in transfected cells; host or cells: Chinese hamster ovary (CHO) cells, doxycycline-inducible (CHO-S1P2-FL / CHO-S1PR2 FL)
Protocol: GLISA RhoA Activation—Antagonist Assay
GLISA assays were performed using RhoA (BK124) activation kit purchased from Cytoskeleton Inc., Denver, CO Doxycycline-inducible Flag-tag S1P2 expressing Chinese hamster ovary (CHO) cells (CHO-S1P2-FL) were seeded in a 6-well plate, 1.5×10^5 cells per well. Cells were stimulated with […] of Doxycycline to induce S1P2 expression in serum free IMDM media with 0.1% BSA/PBS. Following day, cells were stimulated with the compounds described herein (1 nM-10 μM) or 1 μM JTE-013 for 1 hour at 37° C. Following compound incubation, cells were washed with PBS×3 and induced with 100 nM […] for 5 min. […] Protein concentration was examined using GLISA—Precision Red Advanced Protein assay reagent as described in assay manual. Lysates were immobilized on GTP-bound capture plate and GLISA assay was performed based on manufacture recommendations as reported previously.

[2] = biological target: T2, S1PR2 (Homo sapiens, UniProt O95136); test: FLIPR calcium activation - antagonist assay; type: cell-based; set-up: Flag; expressed in transfected cells; host or cells: Chinese hamster ovary (CHO) cells, doxycycline-inducible (CHO-S1P2-FL / CHO-S1PR2 FL); settings: CHO-S1PR2 FL cells, 1 hour compound incubation
Protocol: FLIPR Calcium Activation—Antagonist Assay
An assay was performed using Fluo-4 NW Calcium activation kit (#F36206) purchased from Molecular Probes/Life Technologies, Grand Island, NY. Calcium assay was performed according to the manufacturer's instructions. Briefly, CHO-S1PR2 FL cells (5×10^4 cells (for 384 well plate) or 7.5×10^4 cells (for 96 well plate)) were seeded 24 hours prior to experiment in serum free IMDM media supplemented with 0.1% fatty acid free BSA/PBS (SFM). After starvation, cells were stimulated with the compounds described herein (1 nM-10 μM) for 1 hour in SFM at room temperature. Cells were then washed with PBS and prepared for Calcium induction assay as instructed in Fluo-4 NW Calcium activation kit protocol. For calcium induction, 100 nM […] or 1 μM ATP were added in ligand plate places in the Hamamatsu FDSS6000 drug screening system. Ligand was added in 15 seconds intervals for 15 min and signal ratio of […] was measured using the Hamamatsu FDSS6000 instrument.
Target sequence in this assay (O95136 whole entry, species assumed): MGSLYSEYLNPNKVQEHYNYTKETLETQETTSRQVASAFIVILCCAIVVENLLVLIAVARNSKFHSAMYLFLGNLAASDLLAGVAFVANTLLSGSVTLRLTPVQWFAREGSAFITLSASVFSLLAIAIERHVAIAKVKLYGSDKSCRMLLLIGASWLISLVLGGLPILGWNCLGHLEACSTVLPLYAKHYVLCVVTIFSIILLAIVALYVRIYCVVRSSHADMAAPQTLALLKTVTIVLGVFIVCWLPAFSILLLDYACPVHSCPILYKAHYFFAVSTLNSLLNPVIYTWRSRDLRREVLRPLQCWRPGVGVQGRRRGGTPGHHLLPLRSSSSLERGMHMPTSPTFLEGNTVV

[3] = biological target: T2, S1PR2; settings: Bioorg. Med. Chem. 21: 5373-5382 (2013); cited from earlier work
Target sequence in this assay (O95136 whole entry): as the sequence (O95136 whole entry, species assumed) above

[4] = cited from earlier work

T1 sequence (O95136 whole entry, species assumed): as above

Compound	inhibition at 1 µM [1] [%]	IC50 [2] [nM]	IC50 [1] [nM]	activity at the S1PR2 receptor [3]	aqueous solubility [4]
COc1cc(Br)cn(CC(=O)c2cnn(Cc3ccccc3)c2C)c1=O [Example 41, 1-(2-(1-Benzyl-5-methyl-1H-pyrazol-4-yl)-2-oxoethyl)-5-bromo-3-methoxypyridin-2(1H)-one]	63	694			
C#Cc1cc(C)c(=O)n(CC(=O)c2cnn(Cc3ccccc3)c2C)c1 [Example 42, 1-(2-(1-Benzyl-5-methyl-1H-pyrazol-4-yl)-2-oxoethyl)-5-ethynyl-3-methylpyridin-2(1H)-one]	64	567			
C#Cc1ccc(=O)n(CC(=O)c2cc(C)n(Cc3ccccc3)c2C)c1 [Compound 3, 1-(2-(1-benzyl-2,5-dimethyl-1H-pyrrol-3-yl)-2-oxoethyl)-5-ethynylpyridin-2(1H)-one]	69	89	134		
Cc1cc(C(=O)Cn2cc(Br)ccc2=O)c(C)n1Cc1ccccc1 [Compound 1, 1-(2-(1-benzyl-2,5-dimethyl-1H-pyrrol-3-yl)-2-oxoethyl)-5-bromopyridin-2(1H)-one]	87	58	52		
C#Cc1ccc(=O)n(CC(=O)c2cnn(Cc3ccccc3)c2C)n1 [Example 43, 2-(2-(1-Benzyl-5-methyl-1H-pyrazol-4-yl)-2-oxoethyl)-6-ethynylpyridazin-3(2H)-one]	70	297	200		
Cc1c(C(=O)Cn2cc(Br)ccc2=O)cnn1Cc1ccccc1 [Compound 27, 1-(2-(1-benzyl-5-methyl-1H-pyrazol-4-yl)-2-oxoethyl)-5-bromopyridin-2(1H)-one]	92	11	4.9		
C#Cc1ccn(CC(=O)c2cnn(Cc3ccccc3)c2C)c(=O)c1 [Example 38]	17	3600			
C=Cc1ccc(=O)n(CC(=O)c2cnn(Cc3ccccc3)c2C)c1 [Compound 34, 1-(2-(1-benzyl-5-methyl-1H-pyrazol-4-yi)-2-oxoethyl)-5-vinylpyridin-2(1H)-one]	79	150	82		
Cc1cc(C(=O)C(C)n2cc(Br)ccc2=O)c(C)n1Cc1cccnc1 (centres unmarked) [Compound 24, 5-bromo-1-(1-(2,5-dimethyl-1-(pyridin-3-ylmethyl)-1H-pyrrol-3-yl)-1-oxopropan-2-yl)pyridin-2(1H)-one]	73				
Cc1cc(C(=O)Cn2cc(C#N)ccc2=O)c(C)n1Cc1ccccc1 [CYM-5520]				weak allosteric agonist	poor aqueous solubility
Cc1c(C(=O)Cn2c(F)c(Br)ccc2=O)cnn1Cc1ccccc1 [Example 71, 1-(2-(1-Benzyl-5-methyl-1H-pyrazol-4-yl)-2-oxoethyl)-5-bromo-6-fluoropyridin-2(1H)-one]			22		
C#Cc1ccc(=O)n(C(C)C(=O)c2cnn(Cc3ccccc3)c2C)n1 (centres unmarked) [Example 73, 2-(1-(1-Benzyl-5-methyl-1H-pyrazol-4-yl)-1-oxopropan-2-yl)-6-ethynylpyridazin-3(2H)-one]			59		
C=C(F)c1ccc(=O)n(CC(=O)c2cnn(Cc3ccccc3)c2C)c1 [Example 83]			82		

Second part, led by results:

inhibition at 1 µM [1] [%]	IC50 [2] [nM]	IC50 [1] [nM]	Compound	activity at the S1PR2 receptor [3]	aqueous solubility [4]
69	364		Cc1cc(Br)cn(CC(=O)c2cnn(Cc3ccccc3)c2C)c1=O [Example 39, 1-(2-(1-Benzyl-5-methyl-1H-pyrazol-4-yl)-2-oxoethyl)-5-bromo-3-methylpyridin-2(1H)-one]		
< 10	9800		C#Cc1ccc(=O)n(CC(=O)c2cnn(Cc3cccc(C(=O)O)c3)c2C)c1 [Example 36, 3-((4-(2-(5-Ethynyl-2-oxopyridin-1(2H)-yl)acetyl)-5-methyl-1H-pyrazol-1-yl)methyl)benzoic Acid]		
69	386		C#Cc1ccc(=O)n(CC(=O)c2cnn(Cc3cccnc3)c2C)c1 [Compound 35, 5-ethynyl-1-(2-(5-methyl-1-(pyridin-3-ylmethyl)-1H-pyrazol-4-yl)-2-oxoethyl)pyridin-2(1H)-one]		
< 10	8700		Cc1c(C(=O)Cn2cc(Br)ccc2=O)cnn1Cc1cccc(C(=O)O)c1 [Compound 32, 3-((4-(2-(5-bromo-2-oxopyridin-1(2H)-yl)acetyl)-5-methyl-1H-pyrazol-1-yl)methyl)benzoic acid]		
14	5600		Cc1c(C(=O)Cn2cc(Br)ccc2=O)cnn1Cc1cccnc1 [Compound 33, 5-bromo-1-(2-(5-methyl-1-(pyridin-3-ylmethyl)-1H-pyrazol-4-yl)-2-oxoethyl)pyridin-2(1H)-one]		
79	23	69	C#Cc1ccc(=O)n(CC(=O)c2cnn(Cc3ccccc3)c2C)c1 [Compound 29, 1-(2-(1-benzyl-5-methyl-1H-pyrazol-4-yl)-2-oxoethyl)-5-ethynylpyridin-2(1H)-one]		
67	395		Cc1cc(=O)n(CC(=O)c2cnn(Cc3ccccc3)c2C)cc1Br [Example 40, 1-(2-(1-Benzyl-5-methyl-1H-pyrazol-4-yl)-2-oxoethyl)-5-bromo-4-methylpyridin-2(1H)-one]		
63			Cc1cc(C(=O)C(C)n2cc(Br)ccc2=O)c(C)n1Cc1ccccc1C#N (centres unmarked) [Compound 17, 2-((3-(2-(5-bromo-2-oxopyridin-1(2H)-yl)propanoyl)-2,5-dimethyl-1H-pyrrol-1-yl)methyl)benzonitrile]		
		65	C=Cc1ccc(=O)n(CC(=O)c2nnn(Cc3ccccc3)c2C)c1 [Example 89, 1-(2-(1-Benzyl-5-methyl-1H-1,2,3-triazol-4-yl)-2-oxoethyl)-5-vinylpyridin-2(1H)-one]		
		74	C=Cc1ccc(=O)n(CC(=O)c2cnn(Cc3ccccc3)c2C(F)(F)F)c1 [Example 82, 1-(2-(1-Benzyl-5-(trifluoromethyl)-1H-pyrazol-4-yl)-2-oxoethyl)-5-vinylpyridin-2(1H)-one]		
		> 10000	Cc1cc(C(=O)Cn2cc(C#N)ccc2=O)c(C)[nH]1 [Example 47, 1-(2-(2,5-Dimethyl-1H-pyrrol-3-yl)-2-oxoethyl)-6-oxo-1,6-dihydropyridine-3-carbonitrile]		
15	4400		Cc1c(C(=O)Cn2ccc(Br)cc2=O)cnn1Cc1ccccc1 [Example 37, 1-(2-(1-Benzyl-5-methyl-1H-pyrazol-4-yl)-2-oxoethyl)-4-bromopyridin-2(1H)-one]		
		> 10000	Cc1cc(C(=O)Cn2cc(C(C)(C)C)ccc2=O)c(C)n1Cc1ccccc1 [Example 53, 1-(2-(1-Benzyl-2,5-dimethyl-1H-pyrrol-3-yl)-2-oxoethyl)-5-(tert-butyl)pyridin-2(1H)-one]		
		72	C#Cc1ccc(=O)n(CC(=O)c2nnn(Cc3ccccc3)c2C)c1 [Example 88, 1-(2-(1-Benzyl-5-methyl-1H-1,2,3-triazol-4-yl)-2-oxoethyl)-5-ethynylpyridin-2(1H)-one]		
		130	C=Cc1ccc(=O)n(C(C)C(=O)c2cnn(Cc3ccccc3)c2C)n1 (centres unmarked) [Example 76, 2-(1-(1-Benzyl-5-methyl-1H-pyrazol-4-yl)-1-oxopropan-2-yl)-6-vinylpyridazin-3(2H)-one]		
73		793	Cc1cc(C(=O)C(C)n2cc(Br)ccc2=O)c(C)n1Cc1cccc(Cl)c1 (centres unmarked) [Compound 22, 5-bromo-1-(1-(1-(3-chlorobenzyl)-2,5-dimethyl-1H-pyrrol-3-yl)-1-oxopropan-2-yl)pyridin-2(1H)-one]		
17			Cc1cccc(Cn2c(C)cc(C(=O)C(C)n3cc(Br)ccc3=O)c2C)c1 (centres unmarked) [Example 63, 5-Bromo-1-(1-(2,5-dimethyl-1-(3-methylbenzyl)-1H-pyrrol-3-yl)-1-oxopropan-2-yl)pyridin-2(1H)-one]		
11			Cc1cc(C(=O)C(C)n2cc(Br)ccc2=O)c(C)n1Cc1cccc(F)c1 (centres unmarked) [Example 62, 5-Bromo-1-(1-(1-(3-fluorobenzyl)-2,5-dimethyl-1H-pyrrol-3-yl)-1-oxopropan-2-yl)pyridin-2(1H)-one]		
18			COc1ccc(Cn2c(C)cc(C(=O)C(C)n3cc(Br)ccc3=O)c2C)cc1 (centres unmarked) [Example 61, 5-Bromo-1-(1-(1-(4-methoxybenzyl)-2,5-dimethyl-1H-pyrrol-3-yl)-1-oxopropan-2-yl)pyridin-2(1H)-one]		
